Results published in patent US10112907B2, “Substituted indazoles for treating tendon and/or ligament injuries” (NOVARTIS AG, priority 2016, dated 2018).

Experiments:
[1] = system: Scleraxis (Scx) gene transcriptional activation in TT-D6 Scx-luciferase (ScxL) cell line; experiment: SCX-LUC in vitro assay (Scx-luciferase reporter); type: cell-based; conditions: Mus musculus, 96 h; Table 3; four days; read-out: Scx-Luc (EC50 μM)
[2] = system: Scleraxis (Scx) gene expression in rat tail tendon fascicles; experiment: Ex vivo assay, Scx mRNA in tendon fascicles (qPCR); type: cell-based, Sprague Dawley rat; conditions: 96 h, Table 3, four days, read-out: Ex vivo Scx (EC50 μM)
[3] = system: tendon lesion; experiment: In vivo assay, endochondral ossification readout (Alcian blue) in tendon lesion; conditions: 1 mg peri-tendinous injection 3 days post-surgery
Description: Animals were treated 3 days post-surgery with 1 mg of compound of example 32 in 10 ul of vehicle delivered by injection under the skin in the peri-tendinous region. Tendons were harvested 25 days post-treatment. Strong Alcian blue staining could be seen in the lesion in the vehicle treated group which is typical of endochondral tissue forming which further ossifies with time. […] Definiens Tissue Studio software was used for quantitative image analysis of the Alcian blue positive area. Serial step sections encompassing 2 mm of the lesion were used for quantification.

[4] = system: collagen type I (Col1a2) gene expression in rat tail tendon fascicles; experiment: Ex vivo assay, Col1a2 mRNA in tendon fascicles (qPCR); type: cell-based, Sprague Dawley rat; conditions: 96 h, Table 3, four days, read-out: Ex vivo Col1a2 (EC50 μM)
[5] = system: Rat tail fascicles; experiment: Ex vivo fascicle assay, mechanical testing; parameters: species or system rat (Sprague Dawley); conditions: 1 uM, 37° C., 4 weeks
Excerpt: Tail from skeletal mature rat (Sprague Dawley, female, 30-50 weeks old) was removed and kept on ice. Approximately 40 mm long segment was cut from the mid-portion of the tail. Rat tail fascicles (n=12) were carefully extracted from the segment. Fascicles were then randomly selected into three groups, fresh (n=4), vehicle (n=4) and (S)-(1-((4-(3-amino-4-methyl-1H-indazol-5-yl)-3-methylphenyl)sulfonyl)-4,4-difluoropyrrolidin-2-yl)methanol (Test Compound A hereinafter) treated (n=4). Biomechanical properties were measure immediately after extraction for the fresh group. […]
Samples were clamped for mechanical testing using a standard uniaxial material testing machine (ElectroPuls E3000, 50N load-cell, Instron, US) in a custom environmental testing chamber filled with PBS. Samples were preloaded to a position where crimp (macroscopic fascicle waviness) disappeared and initial length (L0) based on grip-to-grip distance was recorded. […] Sample lengths and corresponding forces were recorded to calculate engineering stress and strain. Young's moduli were calculated from the linear region of the stress-strain curves. […]

[6] = system: Tenomodulin (Tnmd) gene expression in rat tail tendon fascicles; experiment: Ex vivo assay, Tnmd mRNA in tendon fascicles (qPCR); type: cell-based, Sprague Dawley rat; conditions: 96 h, Table 3, four days, read-out: Ex vivo Tnmd (EC50 μM)

EC50 [1]: 0.518 µM | EC50 [2]: 5.56 µM | EC50 [4]: 4.59 µM | EC50 [6]: 6.1 µM
Structure (SMILES): Cc1cc(S(=O)(=O)N2CC(F)(F)C[C@H]2CO)ccc1-c1ccc2[nH]nc(N)c2c1C [Example 32, (S)-(1-((4-(3-amino-4-methyl-1H-indazol-5-yl)-3-methylphenyl)sulfonyl)-4,4-difluoropyrrolidin-2-yl)methanol]
effect on improper healing (aberrant differentiation towards chondrogenic and osteogenic lineages) ([3]; 25 days post-treatment): able to counter some of the improper healing | Endochondral ossification readout Alcian Blue positive (mm^2/section), Mean ([3]; tendons harvested 25 days post-treatment): 25.09 mm^2/section | tendon degeneration in unloaded condition (tendon structure, failure stress, Young's modulus) [5]: could prevent the degeneration
